Measurements from patent US9227970B2, “Triazolopyridine compounds” (Hoffmann-La Roche Inc., priority 2011, dated 2016).

What was measured:
human PDE10A = human PDE10A (Homo sapiens (Human), UniProt Q9Y233); test: human PDE10A full length Scintillation Proximity Assay (SPA); assay type: biochemical; conditions: 50 nM cGMP + 50 nM [3H]-cGMP, 20 minutes at room temperature, read-out: PDE10A inhibition IC50
Description: The following test was carried out in order to determine the activity of the compounds of the present invention. […] The human PDE10A full length assay was performed in 96-well micro titer plates. […] A range of concentrations of the potential inhibitor was used to generate data for calculating the concentration of inhibitor resulting in 50% of the effect (e.g. […] Non-specific activity was tested without the enzyme. The reaction was initiated by the addition of the substrate solution (cGMP and [^3H]-cGMP) and allowed to progress for 20 minutes at room temperature. The reaction was terminated by adding 25 μl of YSi-SPA scintillation beads (GE Healthcare, cat. # RPNQ0150) in 18 mM zinc sulphate solution (stop reagent). […] Afterwards, radioactive counts were measured on a Perkin Elmer Top-Count Scintillation plate reader.

human PDE10A, sequence (Q9Y233 other isoform, or with tags, fused parts or gaps): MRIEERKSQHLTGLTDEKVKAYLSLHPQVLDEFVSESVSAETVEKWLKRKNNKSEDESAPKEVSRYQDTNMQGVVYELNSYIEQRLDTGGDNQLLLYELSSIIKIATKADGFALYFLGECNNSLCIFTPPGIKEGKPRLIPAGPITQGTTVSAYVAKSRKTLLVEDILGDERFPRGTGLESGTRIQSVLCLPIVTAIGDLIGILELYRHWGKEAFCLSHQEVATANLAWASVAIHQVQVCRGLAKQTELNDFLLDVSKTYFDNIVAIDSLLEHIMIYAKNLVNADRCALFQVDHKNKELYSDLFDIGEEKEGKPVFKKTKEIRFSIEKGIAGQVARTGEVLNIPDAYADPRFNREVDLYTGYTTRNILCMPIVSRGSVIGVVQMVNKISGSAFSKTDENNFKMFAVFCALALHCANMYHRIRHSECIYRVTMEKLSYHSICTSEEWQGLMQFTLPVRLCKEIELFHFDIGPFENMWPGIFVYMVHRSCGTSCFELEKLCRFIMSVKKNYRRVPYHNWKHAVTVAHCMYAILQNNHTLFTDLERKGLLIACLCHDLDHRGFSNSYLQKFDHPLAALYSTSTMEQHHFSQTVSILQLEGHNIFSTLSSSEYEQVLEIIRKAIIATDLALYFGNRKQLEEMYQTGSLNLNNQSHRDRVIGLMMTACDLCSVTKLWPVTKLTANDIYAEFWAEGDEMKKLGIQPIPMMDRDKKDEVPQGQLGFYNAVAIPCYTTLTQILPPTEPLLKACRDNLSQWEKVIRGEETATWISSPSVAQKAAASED

SMILES	melting point [°C]	IC50 (human PDE10A) [nM]
Cn1ncc(C(=O)O)c1C(=O)Nc1ccc2nc(-c3ccccc3)nn2c1 [Example 1, 1-Methyl-5-(2-phenyl-[1,2,4]triazolo[1,5-a]pyridin-6-ylcarbamoyl)-1H-pyrazole-4-carboxylic acid]	259	47.3
Cn1ncc(C(=O)N2CCCC2)c1C(=O)Nc1ccc2nc(-c3ccccc3)nn2c1 [Example 2, 2-Methyl-4-(pyrrolidine-1-carbonyl)-2H-pyrazole-3-carboxylic acid (2-phenyl-[1,2,4]triazolo[1,5-a]pyridin-6-yl)-amide]	210	1.2
Cn1ncc(C(=O)N2CCC2)c1C(=O)Nc1ccc2nc(-c3cscn3)nn2c1 [Example 4, 4-(Azetidine-1-carbonyl)-1-methyl-N-(2-(thiazol-4-yl)-[1,2,4]triazolo[1,5-a]pyridin-6-yl)-1H-pyrazole-5-carboxamide]		7.9
Cn1ncc(C(=O)N2CC(F)C2)c1C(=O)Nc1ccc2nc(-c3ccccc3)nn2c1 [Example 6, 4-(3-Fluoro-azetidine-1-carbonyl)-2-methyl-2H-pyrazole-3-carboxylic acid (2-phenyl-[1,2,4]triazolo[1,5-a]pyridin-6-yl)-amide]	243	1.5
CCN(C)C(=O)c1cnn(C)c1C(=O)Nc1ccc2nc(-c3ccccc3)nn2c1 [Example 7, 2-Methyl-2H-pyrazole-3,4-dicarboxylic acid 4-(ethyl-methyl-amide) 3-[(2-phenyl-[1,2,4]triazolo[1,5-a]pyridin-6-yl)-amide]]		2.2
CN(C(=O)c1cnn(C)c1C(=O)Nc1ccc2nc(-c3ccccc3)nn2c1)C1CC1 [Example 8, 2-Methyl-2H-pyrazole-3,4-dicarboxylic acid 4-(cyclopropyl-methyl-amide) 3-[(2-phenyl-[1,2,4]triazolo[1,5-a]pyridin-6-yl)-amide]]	106	0.9
Cn1ncc(C(=O)N2CCOCC2)c1C(=O)Nc1ccc2nc(-c3cccnc3)nn2c1 [Example 9, 2-Methyl-4-(morpholine-4-carbonyl)-2H-pyrazole-3-carboxylic acid (2-pyridin-3-yl-[1,2,4]triazolo[1,5-a]pyridin-6-yl)-amide]	229	13.2
Cn1ncc(C(=O)N2CCC2)c1C(=O)Nc1ccc2nc(-c3cccnc3)nn2c1 [Example 10, 4-(Azetidine-1-carbonyl)-1-methyl-N-(2-(pyridin-3-yl)-[1,2,4]triazolo[1,5-a]pyridin-6-yl)-1H-pyrazole-5-carboxamide]	272	43.6
Cn1ncc(C(=O)N2CCOCC2)c1C(=O)Nc1ccc2nc(N3CCOCC3)nn2c1 [Example 14, 2-Methyl-4-(morpholine-4-carbonyl)-2H-pyrazole-3-carboxylic acid (2-morpholin-4-yl-[1,2,4]triazolo[1,5-a]pyridin-6-yl)-amide]		63.8
CCN(C)C(=O)c1cnn(C)c1C(=O)Nc1ccc2nc(N3CCOCC3)nn2c1 [Example 16, 2-Methyl-2H-pyrazole-3,4-dicarboxylic acid 4-(ethyl-methyl-amide) 3-[(2-morpholin-4-yl-[1,2,4]triazolo[1,5-a]pyridin-6-yl)-amide]]		30.8
Cn1ncc(C(=O)N2CC(F)C2)c1C(=O)Nc1ccc2nc(N3CCOCC3)nn2c1 [Example 17, 4-(3-Fluoro-azetidine-1-carbonyl)-2-methyl-2H-pyrazole-3-carboxylic acid (2-morpholin-4-yl-[1,2,4]triazolo[1,5-a]pyridin-6-yl)-amide]		26.5
CN(C)c1nc2ccc(NC(=O)c3c(C(=O)N4CCCC4)cnn3C)cn2n1 [Example 21, 2-Methyl-4-(pyrrolidine-1-carbonyl)-2H-pyrazole-3-carboxylic acid (2-dimethylamino-[1,2,4]triazolo[1,5-a]pyridin-6-yl)-amide]		28.6
CCN(C)C(=O)c1cnn(C)c1C(=O)Nc1ccc2nc(N(C)C)nn2c1 [Example 22, 2-Methyl-2H-pyrazole-3,4-dicarboxylic acid 3-[(2-dimethylamino-[1,2,4]triazolo[1,5-a]pyridin-6-yl)-amide] 4-(ethyl-methyl-amide)]		33.5
CN(C)c1nc2ccc(NC(=O)c3c(C(=O)N4CC(F)C4)cnn3C)cn2n1 [Example 23, 4-(3-Fluoro-azetidine-1-carbonyl)-2-methyl-2H-pyrazole-3-carboxylic acid (2-dimethylamino-[1,2,4]triazolo[1,5-a]pyridin-6-yl)-amide]		25
CN(C)c1nc2ccc(NC(=O)c3c(C(=O)N(C)C4CC4)cnn3C)cn2n1 [Example 24, 2-Methyl-2H-pyrazole-3,4-dicarboxylic acid 4-(cyclopropyl-methyl-amide) 3-[(2-dimethylamino-[1,2,4]triazolo[1,5-a]pyridin-6-yl)-amide]]		5.3
COc1ncc(C2CC2)nc1C(=O)Nc1ccc2nc(-c3ccccc3)nn2c1 [Example 25, 6-cyclopropyl-3-methoxy-N-(2-phenyl-[1,2,4]triazolo[1,5-a]pyridin-6-yl)pyrazine-2-carboxamide]		17
CCN(CC)c1nc2ccc(NC(=O)c3c(C(=O)N4CCOCC4)cnn3C)cn2n1 [Example 26, 2-Methyl-4-(morpholine-4-carbonyl)-2H-pyrazole-3-carboxylic acid (2-diethylamino-[1,2,4]triazolo[1,5-a]pyridin-6-yl)-amide]		21.8

SMILES	melting point [°C]	IC50 (human PDE10A) [nM]
CCN(CC)c1nc2ccc(NC(=O)c3c(C(=O)N4CCC4)cnn3C)cn2n1 [Example 28, 2-Methyl-4-(azetitine-4-carbonyl)-2H-pyrazole-3-carboxylic acid (2-diethylamino-[1,2,4]triazolo[1,5-a]pyridin-6-yl)-amide]		3.3
CCN(C)C(=O)c1cnn(C)c1C(=O)Nc1ccc2nc(N(CC)CC)nn2c1 [Example 29, 2-Methyl-2H-pyrazole-3,4-dicarboxylic acid 3-[(2-diethylamino-[1,2,4]triazolo[1,5-a]pyridin-6-yl)-amide] 4-(ethyl-methyl-amide)]		9.9
CCN(CC)C(=O)c1cnn(C)c1C(=O)Nc1ccc2nc(N(CC)CC)nn2c1 [Example 30, 2-Methyl-2H-pyrazole-3,4-dicarboxylic acid 4-diethylamide 3-[(2-diethylamino-1,2,4]triazolo[1,5-a]pyridin-6-yl)-amide]		19.1
CCN(CC)c1nc2ccc(NC(=O)c3c(C(=O)N(C)C4CC4)cnn3C)cn2n1 [Example 31]		2.3
Cn1ncc(C(=O)N2CCOCC2)c1C(=O)Nc1ccc2nc(N3CCCC3)nn2c1 [Example 32, 2-Methyl-4-(morpholine-4-carbonyl)-2H-pyrazole-3-carboxylic acid (2-pyrrolidin-1-yl-[1,2,4]triazolo[1,5-a]pyridin-6-yl)-amide]		2.5
Cn1ncc(C(=O)N2CCC2)c1C(=O)Nc1ccc2nc(N3CCCC3)nn2c1 [Example 33]		0.8
Cn1ncc(C(=O)N2CCCC2)c1C(=O)Nc1ccc2nc(N3CCCC3)nn2c1 [Example 34, 2-Methyl-4-(pyrrolidine-1-carbonyl)-2H-pyrazole-3-carboxylic acid (2-pyrrolidin-1-yl-[1,2,4]triazolo[1,5-a]pyridin-6-yl)-amide]		1.2
CN(C(=O)c1cnn(C)c1C(=O)Nc1ccc2nc(N3CCCC3)nn2c1)C1CC1 [Example 35]		1
CCN(C)C(=O)c1cnn(C)c1C(=O)Nc1ccc2nc(N3CCCC3)nn2c1 [Example 36]		1.9
CCN(CC)C(=O)c1cnn(C)c1C(=O)Nc1ccc2nc(N3CCCC3)nn2c1 [Example 37]		3.5
CCN(CC)C(=O)c1cnn(C)c1C(=O)Nc1ccc2nc(N3CCC(OC)C3)nn2c1 (stereo not drawn) [Example 38]		29.4
COC1CCN(c2nc3ccc(NC(=O)c4c(C(=O)N5CCOCC5)cnn4C)cn3n2)C1 (stereo not drawn) [Example 39, 2-Methyl-4-(morpholine-4-carbonyl)-2H-pyrazole-3-carboxylic acid [2-(3-methoxy-pyrrolidin-1-yl)-[1,2,4]triazolo[1,5-a]pyridin-6-yl]-amide]		23.1
CCN(C)C(=O)c1cnn(C)c1C(=O)Nc1ccc2nc(N3CCC(OC)C3)nn2c1 (stereo not drawn) [Example 40, 2-Methyl-2H-pyrazole-3,4-dicarboxylic acid 4-(ethyl-methyl-amide) 3-{[2-(3-methoxy-pyrrolidin-1-yl)-[1,2,4]triazolo[1,5-a]pyridin-6-yl]-amide}]		17
COC1CCN(c2nc3ccc(NC(=O)c4c(C(=O)N(C)C5CC5)cnn4C)cn3n2)C1 (stereo not drawn) [Example 41, 2-Methyl-2H-pyrazole-3,4-dicarboxylic acid 4-(cyclopropyl-methyl-amide) 3-{[2-(3-methoxy-pyrrolidin-1-yl)-[1,2,4]triazolo[1,5-a]pyridin-6-yl]-amide}]		3.5
COC1CCN(c2nc3ccc(NC(=O)c4c(C(=O)N5CCCC5)cnn4C)cn3n2)C1 (stereo not drawn) [Example 42, 2-Methyl-4-(pyrrolidine-1-carbonyl)-2H-pyrazole-3-carboxylic acid [2-(3-methoxy-pyrrolidin-1-yl)-[1,2,4]triazolo[1,5-a]pyridin-6-yl]-amide]		7.5
COC1CCN(c2nc3ccc(NC(=O)c4c(C(=O)N5CCC5)cnn4C)cn3n2)C1 (stereo not drawn) [Example 43, 4-(Azetidine-1-carbonyl)-2-methyl-2H-pyrazole-3-carboxylic acid [2-(3-methoxy-pyrrolidin-1-yl)-[1,2,4]triazolo[1,5-a]pyridin-6-yl]-amide]		4.9
